Data taken from PubChem BioAssay (NCI).
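Where inhibition never reached the appropriate level, the endpoint shown equals the highest concentration tested. Otherwise, values were interpolated linearly from a five-concentration, 48-hour dose response in 96-well plates. At the GI50, growth is halved. At the TGI there is no net growth.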

How the values were obtained:
Experiment in all cases: NCI-60 cell line screen, 48 h
[1] = tested on: SF-539 CNS
[2] = tested on: CAKI-1 renal
[3] = tested on: HOP-62 NSCLC
[4] = tested on: SN12C renal
[5] = tested on: SR leukemia
[6] = tested on: A549 NSCLC
[7] = tested on: NCI/ADR-RES ovarian
[8] = tested on: HS 578T breast
[9] = tested on: MDA-MB-231 breast
[10] = tested on: T-47D breast

Row | SMILES | TGI [1] | TGI [2] | TGI [3] | TGI [4] | TGI [5] | TGI [6] | TGI [7] | TGI [8] | TGI [9] | TGI [10] | GI50 [1] | GI50 [7] | GI50 [2] | GI50 [8] | GI50 [4] | GI50 [5] | GI50 [6] | GI50 [3] | GI50 [9] | GI50 [10]
1 | COCCOCC(=O)N(CCn1ccc(NC(c2ccccc2)(c2ccccc2)c2ccccc2)nc1=O)CCn1cnc2nc(N)[nH]c(=O)c21 | > 100 µM | > 100 µM | > 100 µM | > 100 µM | > 100 µM | > 100 µM |  |  |  |  |  |  |  |  |  |  |  |  |  | 
2 | CC1=C(c2cc(C(=O)Nc3cccc(C(F)(F)F)c3)ncn2)Sc2ccccc2N1 | > 100 µM | > 100 µM | > 100 µM | > 100 µM | > 100 µM | > 100 µM |  |  |  |  |  |  |  |  |  |  |  |  |  | 
3 | CC(=O)OC1CC2C(C)(C)C(=O)C=CC2(C)C2CCC3(C)C(c4ccoc4)OC(=O)C4OC43C12C (stereo not drawn) | 26.6 µM | 31.1 µM | 87 µM | 17.2 µM |  | 86.9 µM | > 100 µM | > 100 µM | 14.1 µM | > 100 µM |  |  |  |  |  |  |  |  |  | 
4 | COc1ccc(/C(=N/NC(N)=O)C(c2ccc(OC)cc2)C2C(=O)Oc3ccccc32)cc1 (stereo not drawn) | > 100 µM | > 100 µM | > 100 µM | > 100 µM | > 100 µM | > 100 µM |  |  |  |  |  |  |  |  |  |  |  |  |  | 
5 | CC(C)(C)C(=O)O[C@@H]1COC2C(O)COC21 (stereo partly drawn) | > 100 µM | > 100 µM | > 100 µM | > 100 µM | > 100 µM | > 100 µM |  |  |  |  |  |  |  |  |  |  |  |  |  | 
6 | CC(=O)OCC1O[C@@H]([S-])C(OC(C)=O)[C@H](OC(C)=O)[C@@H]1OC(C)=O.[Au+].c1ccc(CN2[CH-]N(Cc3ccccc3)C(c3ccccc3)=C2c2ccccc2)cc1 | 3.56 µM | 3.95 µM |  | 5.58 µM | 7.8 µM | 21.4 µM | > 100 µM | 6.91 µM |  |  | 1.85 µM | 5.21 µM | 2 µM | 2.51 µM | 2.22 µM | 0.663 µM | 3.81 µM |  |  | 
7 | Cc1nc(N)sc1C(=O)Nc1cc(C(=O)NCCCN(C)C)n(C)c1 | > 100 µM | > 100 µM | > 100 µM | > 100 µM | > 100 µM | > 100 µM | > 100 µM |  | > 100 µM | > 100 µM | > 100 µM | > 100 µM | > 100 µM |  | > 100 µM | > 100 µM | > 100 µM | > 100 µM | > 100 µM | 35.7 µM
8 | O=C(c1ccccc1)c1nc2ccc(C(F)(F)F)cc2[n+]([O-])c1C(F)(F)F | > 100 µM | > 100 µM | > 100 µM | > 100 µM |  | > 100 µM | > 100 µM | > 100 µM | > 100 µM | > 100 µM | 51.1 µM | 27 µM | 30.4 µM | 52.6 µM | 54 µM |  | 26 µM | 59.6 µM | 45.1 µM | 20.4 µM
9 | O=C1c2c(O)cc(O)cc2OC(c2ccc(O)cc2O)C1O (stereo not drawn) | > 100 µM | > 100 µM | > 100 µM | > 100 µM |  | > 100 µM |  | > 100 µM | > 100 µM | > 100 µM | > 100 µM |  |  |  | > 100 µM |  |  | > 100 µM |  | 
10 | COc1ccc(-c2c(-c3cc(OC)c4c(c3)OCO4)noc2N)cc1 | 11.7 µM | 57.2 µM | 37.1 µM | > 93 µM | > 36.6 µM | > 100 µM |  | 49.6 µM | 16.9 µM | 47.1 µM | 0.0339 µM |  | 0.0424 µM | 0.0302 µM | 0.147 µM | < 0.0104 µM | 0.0663 µM | 0.0345 µM | 0.181 µM | 0.0422 µM
11 | COc1cc(-c2cc(=O)c3cc(C)c(C)c(C(=O)O)c3o2)cc(OC)c1OC | > 100 µM |  | > 100 µM | > 100 µM |  | > 100 µM |  |  |  |  |  |  |  |  |  |  |  |  |  | 
12 | COC1=Nc2ccccc2S(=O)(=O)C=C1 | 33.3 µM |  | > 100 µM | 31.7 µM |  | 36.9 µM | 36.2 µM | 53.4 µM | 27.2 µM | 14.2 µM |  |  | 0.256 µM |  |  |  |  |  |  | 
13 | N#Cc1ccc(C(c2ccc(C#N)cc2)n2cncn2)cc1 | > 5000 µM | > 5000 µM | > 5000 µM | > 5000 µM | > 5000 µM | > 5000 µM | > 5000 µM | > 5000 µM |  | > 5000 µM | 1250 µM | > 5000 µM | > 5000 µM | 1540 µM | > 5000 µM | > 5000 µM | > 5000 µM | 915 µM |  | > 5000 µM
